Reference: article PMC5421785, “Citrullination only infrequently impacts peptide binding to HLA class II MHC” (PLoS ONE, 2017)
Like-named read-outs stand apart in the source and are kept apart here. Square brackets hold non-standard residues; d marks the D form. Peptide text beside a SMILES is read from it. Cit = NC(=O)NCCC[C@H](N)C(=O)O

Tests used:
HLA-DRB1*04:01 = target: T1, HLA-DRB1*04:01 (Homo sapiens, UniProt P01903+P01911, A100K/A169T/F76Y/I96L/K127E/L162R/M171V/N62H/P40V/Q125Y/R42H/S133A/S149N/S66Y/V115G/V209L/W38E); experiment: HLA class II peptide binding, inhibition of radiolabeled peptide binding to purified MHC; details: for IC50: read-out: DRB1*04:01 binding capacity, Cit peptide (IC50 nM); for DRB1*04:01 binding capacity, WT/cit ratio: ratio of WT IC50 to Cit IC50, >1 = citrullination increases binding
T1 construct: EBV transformed homozygous cell lines were used as sources of MHC molecules; endogenous in cells; host or cells: EBV transformed homozygous cell lines

HLA-DRB1*01:01 = target: T2, HLA-DRB1*01:01 (Homo sapiens, UniProt P01903+P01911, A100R/D57E/F55L/F60I/F76Y/I96L/L162R/M171V/P40L/Q125E/R42F/V115G/Y59C); experiment: as above; details: for IC50: read-out: DRB1*01:01 binding capacity, Cit peptide (IC50 nM); for DRB1*01:01 binding capacity, WT/cit ratio: ratio of WT IC50 to Cit IC50, >1 = citrullination increases binding
T2 construct: EBV transformed homozygous cell lines were used as sources of MHC molecules; endogenous in cells; host or cells: EBV transformed homozygous cell lines

[1] = citrullinated 15-mer peptide (X = citrulline), purified HLA-DRB1*04:01
[2] = citrullinated 15-mer peptide (X = citrulline), purified HLA-DRB1*01:01
[3] = citrullinated 15-mer (X), purified MHC, inhibition of radiolabeled peptide binding, dash = IC50 >40,000 nM

SMILES | IC50 (HLA-DRB1*04:01; [1]) | DRB1*04:01 binding capacity, WT/cit ratio (HLA-DRB1*04:01) | IC50 (HLA-DRB1*01:01; [2]) | DRB1*01:01 binding capacity, WT/cit ratio (HLA-DRB1*01:01) | IC50 (HLA-DRB1*04:01; [3]) | IC50 (HLA-DRB1*01:01; [3])
CC(C)C[C@H](NC(=O)CNC(=O)[C@H](CCC(N)=O)NC(=O)[C@@H]1CCCN1C(=O)CNC(=O)[C@@H]1CCCN1C(=O)[C@@H]1CCCN1C(=O)CNC(=O)[C@H](CCC(=O)O)NC(=O)[C@H](C)NC(=O)CN)C(=O)N[C@@H](C)C(=O)NCC(=O)N[C@@H](CCC(N)=O)C(=O)N[C@@H](CCCNC(N)=O)C(=O)O [GAEGPPGPQGLAGQX] (H-GAEGPPGPQGLAGQ[Cit]-OH; N-terminus and C-terminus assumed) | > 40000 nM | 1.0 | > 40000 nM | 1.0 |  | 
CC(C)C[C@H](NC(=O)CNC(=O)[C@H](CCC(N)=O)NC(=O)[C@H](C)NC(=O)CN)C(=O)N[C@@H](CCC(N)=O)C(=O)NCC(=O)N1CCC[C@H]1C(=O)N[C@@H](CCCNC(N)=O)C(=O)NCC(=O)N[C@@H](CC(C)C)C(=O)N1CCC[C@H]1C(=O)NCC(=O)N[C@H](C(=O)N1CCC[C@H]1C(=O)O)[C@@H](C)O [GAQGLQGPXGLPGTP] (H-GAQGLQGP[Cit]GLPGTP-OH) | > 40000 nM |  | 578 nM |  |  | 
CSCC[C@H](NC(=O)[C@@H]1CCCN1C(=O)CNC(=O)[C@H](CCC(N)=O)NC(=O)[C@H](C)NC(=O)CNC(=O)[C@H](C)NC(=O)[C@H](CCC(=O)O)NC(=O)CNC(=O)[C@H](CCCNC(N)=O)NC(=O)[C@H](CC(=O)O)NC(=O)CN)C(=O)NCC(=O)N1CCC[C@H]1C(=O)N[C@@H](CO)C(=O)O [GDXGEAGAQGPMGPS] (H-GD[Cit]GEAGAQGPMGPS-OH; N-terminus and C-terminus assumed) | > 40000 nM | 1.0 | > 40000 nM | 0.2 |  | 
CC[C@H](C)[C@H](NC(=O)[C@H](CCCNC(N)=O)NC(=O)[C@H](CO)NC(=O)[C@H](CCC(=O)O)NC(=O)[C@H](CCC(=O)O)NC(=O)CN)C(=O)N[C@@H](CO)C(=O)N[C@@H](CC(C)C)C(=O)N1CCC[C@H]1C(=O)N[C@@H](CC(C)C)C(=O)N1CCC[C@H]1C(=O)N[C@@H](CC(N)=O)C(=O)N[C@@H](Cc1ccccc1)C(=O)N[C@@H](CO)C(=O)N[C@@H](CO)C(=O)O [GEESXISLPLPNFSS] (H-GEES[Cit]ISLPLPNFSS-OH) | 8410 nM |  | 646 nM |  |  | 
C[C@H](NC(=O)[C@@H](NC(=O)CNC(=O)[C@@H]1CCCN1C(=O)CNC(=O)CN)[C@@H](C)O)C(=O)N[C@@H](CO)C(=O)N[C@@H](CCCNC(=N)N)C(=O)N1CCC[C@H]1C(=O)N[C@@H](CO)C(=O)N[C@@H](CO)C(=O)N[C@@H](CO)C(=O)N[C@@H](CCCNC(N)=O)C(=O)N[C@@H](CO)C(=O)N[C@@H](Cc1ccc(O)cc1)C(=O)O [GGPGTASRPSSSXSY] (H-GGPGTASRPSSS[Cit]SY-OH) |  |  |  |  | > 40000 nM | 13800 nM
C[C@H](NC(=O)[C@@H](NC(=O)CNC(=O)[C@@H]1CCCN1C(=O)CNC(=O)CN)[C@@H](C)O)C(=O)N[C@@H](CO)C(=O)N[C@@H](CCCNC(N)=O)C(=O)N1CCC[C@H]1C(=O)N[C@@H](CO)C(=O)N[C@@H](CO)C(=O)N[C@@H](CO)C(=O)N[C@@H](CCCNC(=N)N)C(=O)N[C@@H](CO)C(=O)N[C@@H](Cc1ccc(O)cc1)C(=O)O [GGPGTASXPSSSRSY] (H-GGPGTAS[Cit]PSSSRSY-OH) |  |  |  |  | > 40000 nM | 10400 nM
CC(C)C[C@H](NC(=O)CNC(=O)[C@@H](NC(=O)[C@H](Cc1ccccc1)NC(=O)CNC(=O)[C@H](CCCNC(N)=O)NC(=O)[C@H](Cc1c[nH]cn1)NC(=O)CN)[C@@H](C)O)C(=O)N[C@@H](CCC(N)=O)C(=O)NCC(=O)N[C@@H](CC(C)C)C(=O)N1CCC[C@H]1C(=O)NCC(=O)N1CCC[C@H]1C(=O)N1CCC[C@H]1C(=O)O [GHXGFTGLQGLPGPP] (H-GH[Cit]GFTGLQGLPGPP-OH) | 2340 nM |  | 0.65 nM |  |  | 
CC[C@H](C)[C@H](NC(=O)CN)C(=O)N[C@@H](C)C(=O)NCC(=O)N[C@@H](C)C(=O)N1CCC[C@H]1C(=O)NCC(=O)N[C@@H](Cc1ccccc1)C(=O)N1CCC[C@H]1C(=O)NCC(=O)N1CCC[C@H]1C(=O)N[C@@H](CCCNC(N)=O)C(=O)NCC(=O)N1CCC[C@H]1C(=O)N1CCC[C@H]1C(=O)O [GIAGAPGFPGPXGPP] (H-GIAGAPGFPGP[Cit]GPP-OH) | > 40000 nM |  | 565 nM |  |  | 
